{"source": "patent US10987324B2", "about": "“Methods and compositions for the treatment of seizure-related disorders” (Adamas Pharmaceuticals, Inc., priority 2015, dated 2021)", "key": {"[1]": {"assay": "Brivaracetam plasma pharmacokinetics, ER infusion vs IP bolus in rats (Example 16)", "type": "in vivo", "conditions": "PK satellite rats", "method": "To reproduce the plasma profile of ER brivaracetam (ER profile, group 2), rats are administered brivaracetam as a continuous infusion into the intraperitoneal (IP) space. […] Control animals (group 1) are infused with vehicle using the same infusion protocol. […] Control animals (group 3) were implanted with pumps containing vehicle and were given an IP bolus of vehicle.\nIn order to fully elucidate the plasma concentration-time profile of brivaracetam administered by the ER and IR protocols, two groups of PK satellite rats are administered brivaracetam using identical protocols to groups 2 and 4 above to reproduce the ER and IR profiles, respectively. Blood is collected at varying time points and the plasma brivaracetam concentrations are determined. No rotarod testing is performed on the PK satellite rats."}, "[2]": {"conditions": "cited from earlier work"}, "[3]": {"tested_on": "motor coordination in rats", "assay": "Rotarod, ER profile vs IR profile of brivaracetam in rats (Example 16)", "type": "in vivo", "method": "The primary objective of this study is to compare the CNS side effects of brivaracetam when delivered as a continuous infusion to rats to simulate an extended release (ER) plasma profile or as a bolus to simulate an immediate release (IR) plasma profile. It is hypothesized that reducing the rate of rise of plasma concentrations with the ER profile compared to the IR profile results in reduced CNS impairment. CNS side effects are measured as an impairment of motor coordination in rodents using the rotarod. The rotarod (Ugo Basile, Italy) is a device that allows for quantitative measurement of motor coordination in rodents. Animals experiencing CNS side effects such as dizziness would fall off the rotarod faster than normal animals.\n(§1) An acceleration protocol is used for training and test sessions, wherein the rotarod is accelerated from 0-40 rpm over a 5 minute session. All rats are then surgically implanted subcutaneously with programmable pumps (iPRECIO, Durect Corporation, Cupertino, Calif.), per the manufacturer's instructions, under anesthesia and using aseptic techniques.\nThree days following pump implantation surgery, all rats are tested on the rotarod to obtain baseline performance values. […]\nAnimals that stay on the rotarod for the entire session are assigned a run-time of 300 seconds. The time that each animal stays on the rotarod prior to falling is automatically recorded. […]"}, "[4]": {"tested_on": "motor coordination in mice", "assay": "Rotarod test in mice, PD phase (Example 12)", "type": "in vivo", "method": "The rotarod (Ugo Basile, […]) is a device that allows for quantitative measurement of motor coordination in rodents. Animals are pre-trained prior to testing on the rotarod.\n24 hours prior to the test day, mice are trained to run on the accelerating rotarod for at least 120 s in two consecutive trials. The mice are given up to 12 trials to achieve this performance criterion. Any mice not meeting this criterion are excluded from the test study.\nMice are randomized to treatment groups (vehicle; IV: 3, 10 30 mg/kg; PO: 10, 30, 90 mg/kg). On the day of the test, the animals are dosed with test article and placed on the rotarod 5 minutes post-dosing. The rotarod is accelerated from 0-40 rpm over a 5 minute session, using the built-in function of the equipment. The rotarod test is repeated for each mouse at 15, 30 and 60 minutes post-drug administration. Animals that stay on the rotarod are assigned a run-time of 300 seconds. The time that each animal stays on the rotarod prior to falling is automatically recorded as the animal's fall latency.\nThe latency to fall time on the rotarod recorded for each animal is reported at each time point post-dose. Latency to fall is averaged (±SEM) across the 10 animals in each treatment group at each time point."}, "[5]": {"assay": "Lacosamide plasma pharmacokinetics, ER infusion vs IP bolus in rats (Example 15)", "type": "in vivo", "conditions": "for Slope (rate of rise of plasma concentration): from initiation of drug administration; for Tmax: read-out: median Tmax; for AUC(0-t): read-out: AUC0-18"}, "[6]": {"conditions": "aqueous systems; cited from earlier work"}, "[7]": {"tested_on": "motor coordination in rats", "assay": "Rotarod, IR vs ER subcutaneous infusion profile in rats (Example 14)", "type": "in vivo", "conditions": "at Cmax", "method": "The example investigates reducing the rate of rise of plasma concentrations with the ER profile compared to the IR profile results in reduced CNS impairment. CNS side effects are measured as an impairment of motor coordination in rodents using the rotarod. Performance of rodents in a battery of neurobehavioral tests conducted during the infusion period are used as secondary endpoints as measures of CNS impairment.\nThe infusion protocols are designed to produce pharmacokinetic profiles of lacosamide similar to that of IR lacosamide administered twice-a-day (BID) to humans (IR profile) or an extended release profile administered once-a-day (QD) to humans (ER profile) at varying doses administered as IR BID or ER QD.\nRats are pre-trained on the rotarod prior to testing and assigned to groups based on their body weights.\nFollowing the period of acclimation, rats are surgically implanted with subcutaneous programmable pumps (iPRECIO), per the manufacturer's instructions. […]\nOn the test day at the specified time point, rats are placed on the rotarod and the rotarod is accelerated from 0-40 rpm over a 5 minute session, using the built-in function of the equipment. […] The time that each animal stays on the rotarod prior to falling is automatically recorded as the animal's fall latency. […]"}, "[8]": {"assay": "PK phase, single IV or PO dose of lacosamide in mice (Example 12)", "type": "in vivo, male CD-1 mice", "conditions": "male, CD-1, mouse, plasma", "description": "For the PK phase, male CD-1 mice were assigned to treatment groups according to the study design in Table Ex 12 below. IV dosing was done via tail vein injection and oral delivery was done with oral gavage tube."}, "[9]": {"tested_on": "motor coordination in rats", "assay": "Rotarod, ER profile vs IR profile of lacosamide in rats (Example 15)", "type": "in vivo", "method": "It is hypothesized that reducing the rate of rise of plasma concentrations with the ER profile compared to the IR profile results in reduced CNS impairment. CNS side effects were measured as an impairment of motor coordination in rodents using the rotarod. The rotarod (Ugo Basile, Italy) is a device that allows for quantitative measurement of motor coordination in rodents. Animals experiencing CNS side effects such as dizziness would fall off the rotarod faster than normal animals.\nas §1, with “was” for “is”, “were” for “are”\nThree days following pump implantation surgery, all rats were tested on the rotarod to obtain baseline performance values. Rats were assigned to treatment groups such that the mean time spent on the rotarod was similar for each group. Four groups of rats were utilized in this study, with 8-10 rats per group:\nThe total pump infusion duration was 18 hours. Control animals (group 1) were infused with vehicle (20% N-methyl-2-pyrrolidone, NMP) using the same infusion protocol. […] Control animals (group 3) were implanted with pumps containing vehicle and were given an IP bolus of vehicle.\nImmediately following the 18 hour pump infusion for the ER groups, or 1 hour after IP injection for the IR groups, rats were placed on the rotarod and the rotarod was accelerated from 0-40 rpm over a 5 minute session, using the built-in function of the equipment. Animals that stayed on the rotarod for the entire session were assigned a run-time of 300 seconds. The time that each animal stayed on the rotarod prior to falling was automatically recorded."}}, "note": "Where two headings read alike, the source gives them in different places.", "data": [{"smiles": "CCC[C@@H]1CC(=O)N([C@@H](CC)C(N)=O)C1", "note": "[brivaracetam, (2S)-2-[(4R)-2-oxo-4-propylpyrrolidin-1-yl]butanamide]", "values": [{"measurement": "rate of rise of plasma concentration, ER profile as % of IR profile", "setting": "[1]", "result": "< 10", "unit": "%"}, {"measurement": "elimination / plasma / pharmacokinetic half-life", "setting": "[2]; human", "result": "420 to 480", "unit": "min"}, {"measurement": "fraction of dose unchanged in urine", "setting": "[2]; in vivo", "result": "5-8%"}, {"measurement": "Tmax", "setting": "[2]; oral dosing, human", "result": "approximately 2 hours"}, {"measurement": "change from baseline in time on the rotarod vs vehicle", "setting": "[3]; ER profile", "result": "not different between brivaracetam treated and vehicle animals"}, {"measurement": "change in time on the rotarod vs vehicle", "setting": "[3]; IR profile, IP bolus", "result": "greater reduction in time on the rotarod than matched vehicle controls"}]}, {"smiles": "COC[C@@H](NC(C)=O)C(=O)NCc1ccccc1", "note": "[lacosamide, R-2-acetamido-N-benzyl-3-methoxypropionamide]", "values": [{"measurement": "elimination / plasma / pharmacokinetic half-life", "setting": "[2]; human", "result": "about 13 hours"}, {"measurement": "effect of CYP2C19 polymorphism on the pharmacokinetics", "setting": "[2]; in vivo", "result": "no significant effect"}, {"measurement": "latency to fall, PO compared to IV", "setting": "[4]; doses with equivalent Cmax but different Tmax (e.g. 30 mg/kg IV and 90 mg/kg PO)", "result": "greater latency to fall on the rotarod (less impairment)"}, {"measurement": "effect of an increase in dose on latency to fall", "setting": "[4]; same route of administration (IV or PO)", "result": "decrease in the latency to fall time on the rotarod"}, {"measurement": "Slope (rate of rise of plasma concentration)", "setting": "[5]; Group 2 (ER)", "result": 1.4, "unit": "µg/mL/h"}, {"measurement": "Slope (rate of rise of plasma concentration)", "setting": "[5]; Group 4 (IR)", "result": 62, "unit": "µg/mL/h"}, {"measurement": "reduction in the rate of the rise (slope) ER compared to IR", "setting": "[5]; PK satellite rats", "result": 98, "unit": "%"}, {"measurement": "Tmax", "setting": "[5]; rat, plasma, 19 mg/kg, IP bolus, IR profile (Group 4), PK satellite rats", "result": 45, "unit": "min"}, {"measurement": "concentration at 1 h", "setting": "[5]; rat, plasma, intraperitoneal, 19 mg/kg, group 4 (IR profile)", "result": "~19000", "unit": "ng/mL"}, {"measurement": "concentration at 18 h", "setting": "[5]; rat, plasma, intraperitoneal, 122 mg/kg, group 2 (ER profile)", "result": "~19000", "unit": "ng/mL"}, {"measurement": "Cmax", "setting": "[5]; rat, plasma, ip, 19 mg/kg, Group 4 (IR), PK satellite rats", "result": 22000, "unit": "ng/mL"}, {"measurement": "AUC(0-t)", "setting": "[5]; rat, plasma, ip, 19 mg/kg, Group 4 (IR)", "result": 18, "unit": "µg·h/mL"}, {"measurement": "Tmax", "setting": "[5]; rat, plasma, ip, 122 mg/kg, ER infusion protocol (Group 2), PK satellite rats", "result": 900, "unit": "min"}, {"measurement": "AUC(0-t)", "setting": "[5]; rat, plasma, ip, 122 mg/kg, Group 2 (ER), 18 hour infusion", "result": 217, "unit": "µg·h/mL"}, {"measurement": "Cmax", "setting": "[5]; rat, plasma, ip, 122 mg/kg, Group 2 (ER), PK satellite rats", "result": 19000, "unit": "ng/mL"}, {"measurement": "solubility", "setting": "[6]", "result": "about 20 mg/ml"}, {"measurement": "time spent on the rotarod, IR profile compared to ER group", "setting": "[7]; given dose level", "result": "significantly reduced time spent on the rotarod (i.e. greater impairment)"}, {"measurement": "time spent on the rotarod vs dose", "setting": "[7]; given infusion protocol, 400 vs 800 mg/day HED", "result": "decrease in a dose-dependent manner"}, {"measurement": "Cmax", "setting": "[8]; 90 mg/kg oral dose", "result": "~40000", "unit": "ng/mL"}, {"measurement": "Tmax", "setting": "[8]; IV route", "result": "< 5", "unit": "min"}, {"measurement": "Tmax", "setting": "[8]; oral route", "result": "~15", "unit": "min"}, {"measurement": "Cmax", "setting": "[8]; single 10 mg/kg IV dose", "result": "~15000", "unit": "ng/mL"}, {"measurement": "Cmax", "setting": "[8]; single 30 mg/kg IV dose", "result": "~40000", "unit": "ng/mL"}, {"measurement": "Cmax", "setting": "[8]; single 30 mg/kg oral dose", "result": "~15000", "unit": "ng/mL"}, {"measurement": "percent change from baseline in time on the rotarod vs vehicle", "setting": "[9]; ER groups, p>0.05", "result": "not statistically different"}, {"measurement": "increase in time on the rotarod from baseline", "setting": "[9]; ER profile (group 2), vehicle 27% increase", "result": 45, "unit": "%"}, {"measurement": "reduction in time on the rotarod from baseline", "setting": "[9]; IR profile, IP bolus (group 4), vehicle 54% increase", "result": 55, "unit": "%"}]}]}
